Measured values: patent publication US10154970B2, “Methods for immunomodulation of cancer and infectious disease therapy” (The Regents of the University of California, priority 2014, dated 2018)

How the values were obtained:
IFN-γ [1] = assay: Example 6: IFN-γ ELISpot response to BP25 peptide in allograft-bearing mice; type: in vivo, C57BL/6 wild type mice; settings: Day 28, TRIP 100 mg/kg + PV 100 μg
Protocol: IFN-γ immune response to scrambled and BP25 peptides following treatment with control (n=5), TRIP 100 mg/kg (n=6), PV 100 μg (n=6) and the TRIP+PV (n=6) combination. Each of four weekly 100 μg injections of peptide vaccine (PV) was preceded by three daily oral doses of TRIP. All mice were implanted with breast cancer allografts on Day 0, and spleens were collected for enzyme-linked immunosorbent spot (ELISpot) analysis on Day 28 following four weeks of treatment. The BP25 peptide is a 25-mer and the target antigen of the PV, while the scrambled peptide is a control peptide containing the same 25 amino acids in a scrambled arrangement.
On Day 0 of the study, all 32 mice were subcutaneously implanted with 1.0×10^6 mouse breast cancer cells expressing the PV target antigen (BP25). Two days later, mice began a three-day regimen of once daily 100 mg/kg TRIP administered orally. On Day 5, mice were administered their first weekly 100 μg dose of PV by subcutaneous injection. This treatment schedule was repeated for a total of four weeks. Tumor growth was assessed twice weekly. All mice were euthanized on Day 28 for the collection of serum and spleens to assess immune response to treatment. Immune response was assessed by performing IFN-γ ELISpot.

IFN-γ [2] = assay: Experiment 4: IFN-γ ELISpot after short-course TRIP and PV in lung tumor-bearing mice; type: in vivo, human MUC1.Tg C57BL/6 mice; settings: short-course (16-day) TRIP 10 or 50 mg/kg + one cycle of PV
Protocol: Effect of short-course (16-day) TRIP treatment on IFN-γ immune response. […] Lymphocytes were isolated following treatment with one cycle of PV, TRIP 10 mg/kg, TRIP 50 mg/kg, or combinations (n=10-11). PV=peptide vaccine.
A total of 65 male human MUC1.Tg C57BL/6 mice underwent urethane lung tumor induction as described (Wurz G T. et al., J. Transl. Med., 11:64 (2013)) starting at approximately five weeks of age. […] Starting in Week 20, all mice in the PV treatment groups were administered eight weekly 10 μg doses by subcutaneous (s.c.) injection (100 μl) at rotating sites using a 25-gauge needle. […] All other mice received daily oral doses of the control solution. Twenty-four hours after the final dose of TRIP and 48 hours after the last dose of PV (Week 27), all mice were euthanized for the collection of serum and spleens, which were processed appropriately for ELISpot and CTL assays. For the ELISpot assay, n=4-5.

[3] = system: regulatory T cells (Tregs); assay: Experiment 5: regulatory T cells (FoxP3+/CD4+) by flow cytometry; type: in vivo, human MUC1.Tg C57BL/6 mice; settings: TRIP 100 mg/kg or letrozole 0.8 mg/kg daily oral 14 days
Protocol: A total of 32 female human MUC1.Tg C57BL/6 mice, starting at approximately six weeks of age, were treated with urethane as described (Wurz G T. et al., J. Transl. Med., 11:64 (2013)). Two weeks following the final dose of urethane (Week 17), the mice were randomized into four treatment groups of approximately equal average weight (n=8, all groups): Control (no treatment); TRIP (i.e., ospemifene) 100 mg/kg; estradiol 25 μg/kg; and letrozole 0.8 mg/kg. TRIP and letrozole were prepared in DMSO and peanut oil as described above in Experiment 2 and administered daily for 14 days by oral gavage (100 μL). Estradiol was dissolved in 100% ethanol, diluted in PBS to achieve the desired concentration, and then administered daily for 14 days by s.c. injection at rotating sites using a 25-gauge needle. In Week 19, the study was terminated, 24 hours after the last treatments, and serum and spleens were collected for surface marker and Treg analyses.
After two weeks of treatment, lymphocytes were isolated from spleen. T-cell surface markers (CD4, CD8, PD-1, CD28) and regulatory T cells (Tregs) were analyzed by flow cytometry.

[4] = system: mouse breast cancer cells expressing the PV target antigen (BP25); assay: Example 6: tumor volume of breast cancer allografts; type: in vivo, C57BL/6 wild type mice; settings: three daily oral doses TRIP 100 mg/kg before each of four weekly 100 μg PV; Days 22 and 25
Protocol: Antitumor effects and serum IFN-γ immune response to peptide vaccine immunotherapy alone and in combination with TRIP immunomodulator. Each of four weekly 100-μg injections of peptide vaccine (PV) was preceded by three daily oral doses of TRIP (100 mg/kg). All mice were implanted with breast cancer allografts on Day 0, and serum was collected on Day 28 following four weeks of treatment. Tumor volumes were measured twice each week. For all treatment groups, n=8.
A total of 32 female C57BL/6 wild type mice were assigned to four treatment groups (n=8): Control; TRIP (i.e., ospemifene) 100 mg/kg; tecemotide (L-BLP25) peptide vaccine (PV) (100 μg); and TRIP 100 mg/kg combined with 100 μg PV. On Day 0 of the study, all 32 mice were subcutaneously implanted with 1.0×10^6 mouse breast cancer cells expressing the PV target antigen (BP25). Two days later, mice began a three-day regimen of once daily 100 mg/kg TRIP administered orally. On Day 5, mice were administered their first weekly 100 μg dose of PV by subcutaneous injection. This treatment schedule was repeated for a total of four weeks. Tumor growth was assessed twice weekly. All mice were euthanized on Day 28 for the collection of serum and spleens to assess immune response to treatment. Immune response was assessed by performing IFN-γ ELISpot.

IL-4 = system: IL-4
Protocol: A total of 43 wild type C57BL/6 mice were assigned to four different treatment groups: Control (n=10); and TRIP (i.e., ospemifene) 10, 50, and 100 mg/kg (n=11, all TRIP groups). All mice received a full course of tecemotide (L-BLP25) peptide vaccine (PV) immunotherapy (eight weekly 10 μg doses administered subcutaneously (s.c.) as described in Wurz G T. et al., J. Transl. Med., 11:64 (2013)). During the final 16 days of immunotherapy, mice received daily oral doses of TRIP according to treatment group assignment. TRIP oral dosing solutions were prepared by dissolving an appropriate amount of the drug in pure dimethyl sulfoxide (DMSO) and then adding peanut oil to the desired final concentration (final DMSO concentration was 2%). All doses were administered in a volume of 100 μl using 20-gauge stainless steel oral feeding needles. Control mice were given diluent only. Forty-eight hours following the final dose of PV, all mice were euthanized for the collection of blood for cytokine analysis by multiplex and spleens for assessing immune response by enzyme-linked immunosorbent spot (ELISpot) assay.
Data are expressed as the number of spot forming cells (SFC)/500,000 lymphocytes following exposure to medium (no peptide), scrambled peptide, and BP25 peptide.

IFN-γ [5] = assay: Experiment 5: serum IFN-γ cytokine analysis; type: in vivo, human MUC1.Tg C57BL/6 mice; settings: TRIP 100 mg/kg or letrozole 0.8 mg/kg daily oral 14 days
Protocol: FIG. 13. Effects of TRIP on serum IFN-γ compared to estradiol and letrozole. Serum IFN-γ from untreated control, TRIP (100 mg/kg), estradiol (E2; 25 μg/kg), and letrozole (0.8 mg/kg) groups were analyzed following daily treatment for 14 days (n=8 all groups). **p<0.01, ***p<0.001.
TRIP and letrozole were prepared in DMSO and peanut oil as described above in Experiment 2 and administered daily for 14 days by oral gavage (100 μL). Estradiol was dissolved in 100% ethanol, diluted in PBS to achieve the desired concentration, and then administered daily for 14 days by s.c. injection at rotating sites using a 25-gauge needle. In Week 19, the study was terminated, 24 hours after the last treatments, and serum and spleens were collected for surface marker and Treg analyses.

[6] = system: cytotoxic T lymphocyte activity
Protocol: (§1) FIG. 15. […] Antigen-specific IFN-γ immune response was assessed by ELISpot 48 hours following two cycles of peptide vaccine (PV).
(§2) A total of 55 mixed-sex hMUC1.Tg C57BL/6 mice, starting at approximately five weeks of age, were treated with urethane as described above. Approximately six weeks after the last dose of urethane, mice were randomized into four treatment groups of approximately equal average weight: Control (n=22); TRIP (i.e., ospemifene) 50 mg/kg (n=16); tecemotide (L-BLP25) peptide vaccine (PV) (n=6); and TRIP+PV (n=11). At this time (Week 21), mice assigned to the […] began treatment with the first of two cycles consisting of eight weekly 10 μg doses each, with approximately four weeks between cycles. Cycle 1 was administered during Weeks 21-28, and Cycle 2 from Weeks 32-39. The PV was prepared and administered as described above. Mice in the TRIP groups began daily oral treatment in Week 31, which continued through the end of the study (approximately eight weeks of dosing). TRIP was prepared and administered as described above. Mice not assigned to TRIP treatment received daily oral doses of diluent. At the conclusion of the study, 48 h after the final dose of PV and 24 h after the last dose of TRIP, all mice were euthanized for the collection of serum and spleens, which were processed as described above for multiplex serum cytokine, Treg, and CTL analyses.

IFN-γ [7] = settings: chronic daily TRIP 50 mg/kg + two cycles of PV
Protocol: as §1, §2

[8] = chronic daily TRIP 50 mg/kg + PV

**Q.** For `OCCOc1ccc(/C(=C(/CCCl)c2ccccc2)c2ccccc2)cc1` [TRIP, Z-2-[4-(4-chloro-1,2-diphenyl-but-1-enyl)-phenoxy]ethanol], which “T cell immune response by ELISpot to the target antigen (BP25), PV in combination with TRIP” value (IFN-γ [1]) is on record?
**A.** specific IFN-γ responses

**Q.** What about the “T cell immune response by ELISpot, PV in combination with TRIP compared to PV alone” value (IFN-γ [1]) of the same molecule?
**A.** increased immune response

**Q.** What about the “IFN-γ immune response by ELISpot, TRIP in combination with the PV” value (IFN-γ [2]) of the same molecule?
**A.** equivalent increase

**Q.** What about the “Tregs (FoxP3+/CD4+) compared to estradiol treatment” value [3] of the same molecule?
**A.** significantly inhibited

**Q.** What about the “tumor volume compared to the control group, PV in combination with TRIP” value [4] of the same molecule?
**A.** reduced tumor volume

**Q.** And the “IL-4 response, PV + 50 mg/kg TRIP vs PV alone” value (IL-4; TRIP 50 mg/kg daily oral final 16 days + PV)?
**A.** No significant difference

**Q.** And the “IL-4 immune response by ELISpot, TRIP combined with PV” value (IL-4; TRIP 10, 50, 100 mg/kg daily oral final 16 days + 8 weekly 10 μg PV s.c.)?
**A.** decrease with TRIP dose

**Q.** And the “serum IFN-γ concentrations compared to estradiol” value (IFN-γ [5])?
**A.** significantly increased

**Q.** What about the “CTL activity of the combination over that of PV alone” value [6, 8] of the same molecule?
**A.** increased CTL activity

**Q.** What about the “additive CTL activity in combination with PV” value [6, 8] of the same molecule?
**A.** no additive CTL activity

**Q.** And the “CTL activity compared to control” value ([6]; chronic daily TRIP 50 mg/kg alone)?
**A.** slightly, but not significantly increased

**Q.** And the “PV-induced, antigen-specific immune response (IFN-γ ELISpot)” value (IFN-γ [7])?
**A.** significantly decreased
